From PubChem BioAssay (NCI)
Where “and” joins values, the source holds several entries; their conditions need not be identical. Equal values may be shown once.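 A five-concentration, 48-hour dose response in 96-well plates underlies each endpoint, interpolated linearly between surrounding concentrations. GI50 = concentration required for 50% inhibition of growth. TGI: concentration producing complete growth inhibition.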

Columns and labels:
Assay in all cases: DTP human tumour cell line panel, 48 h
[1] = test system: EKVX NSCLC
[2] = test system: MCF7 breast
[3] = test system: ACHN renal
[4] = test system: OVCAR-5 ovarian
[5] = test system: SK-MEL-5 melanoma
[6] = test system: OVCAR-4 ovarian
[7] = test system: CAKI-1 renal
[8] = test system: COLO 205 colon
[9] = test system: SNB-75 CNS
[10] = test system: RXF 393 renal
[11] = test system: NCI-H522 lung

Row | Compound | TGI [1] [µM] | TGI [2] | TGI [3] [µM] | TGI [4] | TGI [5] | TGI [6] [µM] | TGI [7] | TGI [8] | TGI [9] | TGI [10] | TGI [11] [µM] | GI50 [2] | GI50 [3] | GI50 [4] | GI50 [5] | GI50 [6] | GI50 [8] | GI50 [9] | GI50 [11] [µM]
1 | COC(=O)c1nc2c(C)c(O)c(O)c([C@H](C)CCC=C(C)C)c2o1 | > 100 | > 100 µM | 53.8 | > 100 µM | 28.4 µM | > 100 | 50.9 µM | 35.6 µM | 56.1 µM | 39.6 µM | – | – | – | – | – | – | – | – | –
2 | O=[N+]([O-])c1ccccc1S(=O)(=O)N1CCCc2cc(Cl)ccc21 | > 100 | > 80.3 µM | > 100 | > 100 µM | > 100 µM | > 100 | > 100 µM | > 100 µM | > 100 µM | 74.1 µM | – | – | – | – | – | – | – | – | –
3 | COC(=O)CP1(=O)OC2C(C3CCC2(C)C3(C)C)N1c1cc(C(F)(F)F)cc(C(F)(F)F)c1 (stereo not drawn) | > 100 | > 100 µM | > 100 | > 100 µM | > 100 µM | > 100 | 83.1 µM | 49.1 µM | 51.9 µM | – | – | – | – | – | – | – | – | – | –
4 | CC1(C)COC(c2cccc(C3=NC(C)(C)CO3)c2)=N1 | > 100 | > 100 µM | > 100 | > 100 µM | > 100 µM | > 100 | > 100 µM | > 100 µM | – | – | – | – | – | – | – | – | – | – | –
5 | CC1(C(O)c2ccccc2)CN(C(C)(C)C)C(=O)/C1=C\Sc1ccccc1 (stereo not drawn) | > 100 | > 100 µM | > 100 | > 100 µM | > 100 µM | > 100 | > 100 µM | 50.7 µM | – | – | 22.9 | – | – | – | – | – | – | – | –
6 | CCC(=O)O[C@@H]1C2C(OC(C)=O)C34COC(C)([C@@H]3C3C(C[C@]3(C)OC(C)=O)[C@@H](OC(=O)c3ccccc3)C4=O)[C@H](OC(C)=O)[C@@]2(OC(C)=O)C[C@@H]1C (stereo partly drawn) | > 100 | – | > 100 | > 100 µM | 51 µM | 44.7 | > 100 µM | > 100 µM | 12.4 µM | – | > 100 | – | – | – | – | – | – | – | –
7 | O=c1[nH]c2ccc(CC(=S)N3CCN(c4ccccc4)CC3)cc2s1 | > 100 | > 100 µM | > 100 | 84.5 µM | – | – | > 100 µM | > 100 µM | – | 46.4 µM | – | – | – | – | – | – | – | – | –
8 | CC(=O)OC(C)(C)C1CCC(C)(C(O)COc2ccc(CCNC(=O)c3ccccc3)cc2)O1 (stereo not drawn) | – | – | > 100 | > 100 µM | 29.4 µM | > 100 | > 100 µM | > 100 µM | > 100 µM | > 100 µM | > 100 | – | – | – | – | – | – | – | –
9 | CC(=O)OCCOCNC(=S)N/N=C(\C)c1ccco1 | > 100 | – | > 100 | > 100 µM | > 100 µM | > 100 | – | > 100 µM | > 100 µM | > 100 µM | > 100 | – | – | – | – | – | – | – | –
10 | CCOC(=O)[C@H]1Nc2ccc(O)cc2C2c3ccccc3CC21 (stereo partly drawn) | > 100 | – | > 100 | > 100 µM | > 100 µM | > 100 | > 100 µM | > 100 µM | > 100 µM | 91.9 µM | > 100 | – | – | – | – | – | – | – | –
11 | Cc1cccc(Nc2cn(CCOc3ccccc3)c(=O)[nH]c2=O)c1 | 39.8 | > 100 µM | > 100 | > 100 µM | 70.2 µM | > 100 | > 100 µM | 36.8 µM | – | > 100 µM | – | – | – | – | – | – | – | – | –
12 | COc1ccc2cc(C(=O)NCCc3ccccc3)ccc2c1OC | > 100 | > 100 µM | > 100 | > 100 µM | > 100 µM | > 100 | > 100 µM | > 100 µM | – | 70.7 µM | – | – | – | – | – | – | – | – | –
13 | CC(=O)OCC1OC(n2c(-c3ccccc3)c(N=Nc3ccc(Cl)cc3)c(C)c(C#N)c2=S)C(OC(C)=O)C(OC(C)=O)C1OC(C)=O (stereo not drawn) | – | 24.4 µM and > 100 µM | > 100 | 30.6 µM and > 100 µM | 14.4 µM and 54.8 µM | > 100 | 63.9 µM and > 100 µM | 57.5 µM and > 100 µM | > 100 µM and 26.4 µM | 35.6 µM and 48.8 µM | – | 10.2 µM and 28.2 µM | 6.95 µM and 34.6 µM | 15.7 µM and > 100 µM | 4.01 µM and 10.4 µM | 13.8 µM and 31.8 µM | 28 µM and > 100 µM | 25.5 µM and 4.24 µM | –
14 | OC(Cn1cncn1)(Cn1cncn1)c1ccc(Cl)cc1Cl | – | – | > 100 | > 100 µM | > 100 µM | > 100 | > 100 µM | > 100 µM | > 100 µM | > 100 µM | > 100 | – | – | – | – | – | – | – | –
15 | CC1OC(OP(=O)(OCc2ccccc2)OCc2ccccc2)C(OC(=O)c2ccccc2)C(OC(=O)c2ccccc2)C1I (stereo not drawn) | > 100 | – | > 100 | > 100 µM | > 100 µM | > 100 | > 100 µM | 84.8 µM | 68.1 µM | 76.9 µM | 88.2 | – | – | – | – | – | – | – | –
16 | CC(=O)OC1COC(N2C(=O)C(=O)c3cc(Br)c([N+](=O)[O-])cc32)C(OC(C)=O)C1OC(C)=O (stereo not drawn) | > 100 | – | > 100 | > 100 µM | > 100 µM | > 100 | > 100 µM | > 100 µM | 81.4 µM | 82.3 µM | > 100 | – | – | – | – | – | – | – | –

Row | Compound | TGI [1] [µM] | TGI [2] | TGI [3] [µM] | TGI [4] | TGI [5] | TGI [6] [µM] | TGI [7] | TGI [8] | TGI [9] | TGI [10] | TGI [11] [µM] | GI50 [2] | GI50 [3] | GI50 [4] | GI50 [5] | GI50 [6] | GI50 [8] | GI50 [9] | GI50 [11] [µM]
17 | CCCCCCc1cc(C=O)sc1-c1ccc(-c2sc(-c3ccc(-c4ccc(-c5cc(CCCCCC)c(-c6ccc(-c7sc(C=O)cc7CCCCCC)s6)s5)s4)s3)cc2CCCCCC)s1 | > 100 | > 100 µM | > 100 | > 100 µM | > 100 µM | > 100 | > 100 µM | > 100 µM | – | > 100 µM | > 100 | – | – | – | – | – | – | – | –
18 | CCOC(=O)Nc1ccc(S(=O)(=O)Nc2ccc(Br)cc2)cc1 | 89.5 | 75.7 µM | 85.2 | > 100 µM | 88.7 µM | 57.1 | > 100 µM | 30.4 µM | – | > 100 µM | > 100 | – | – | – | – | – | – | – | –
19 | CCC1OC2C(CC=C(C)C)=C3OC(C)(O)C(C)(CC)C(O)C3=C3OC(=O)C=C1C32 (stereo not drawn) | > 100 | > 100 µM | > 100 | > 100 µM | > 100 µM | > 100 | > 100 µM | > 100 µM | – | – | – | – | – | – | – | – | – | – | –
20 | Cn1cc(C(=O)C2CCCCC2)ccc1=O | > 100 | – | > 100 | > 100 µM | > 100 µM | > 100 | > 100 µM | > 100 µM | > 100 µM | > 100 µM | > 100 | – | – | – | – | – | – | – | –
21 | C[C@H](NC(=O)OC1C2C=CC(O)C1CC2)c1ccccc1 (stereo partly drawn) | > 100 | – | > 100 | > 100 µM | > 100 µM | > 100 | > 100 µM | > 100 µM | > 100 µM | > 100 µM | > 100 | – | – | – | – | – | – | – | –
22 | CCc1nnc2sc(-c3ccc(-c4ccc(Cl)cc4Cl)o3)nn12 | > 100 | – | > 100 | > 100 µM | > 100 µM | > 100 | > 100 µM | > 100 µM | 56 µM | 22.3 µM | > 100 | – | – | – | – | – | – | – | –
23 | CC(C)=NN/C(=N\S(=O)(=O)c1cc(Cl)c(Oc2ccc([N+](=O)[O-])cc2Cl)c(Cl)c1)Nc1ccc(Cl)cc1 | > 100 | > 100 µM | – | > 100 µM | > 100 µM | > 100 | > 100 µM | > 100 µM | – | – | > 100 | – | – | – | – | – | – | – | –
24 | Fc1ccc(C(=NCc2ccccc2)N2CCOCC2)cc1 | > 100 | > 100 µM | > 100 | > 100 µM | > 100 µM | – | > 100 µM | > 100 µM | > 100 µM | > 100 µM | – | – | – | – | – | – | – | – | –
25 | O=Cc1cc(O)c(O)c(O)c1-c1c(C=O)cc(O)c(O)c1O | > 100 | – | > 100 | > 100 µM | > 100 µM | > 100 | > 100 µM | > 100 µM | > 100 µM | – | > 100 | – | – | – | – | – | – | – | –
26 | Cc1c(Cl)cccc1NC(=O)C(=O)C1C(=O)NC(=O)NC1=O | > 100 | – | > 100 | > 100 µM | > 100 µM | > 100 | > 100 µM | > 100 µM | > 100 µM | > 100 µM | > 100 | – | – | – | – | – | – | – | –
27 | CCOC(=O)/C(O)=C(\C=N\C(=S)Nc1ccc(Cl)c(Cl)c1)C(=O)OCC | > 100 | > 100 µM | > 100 | > 100 µM | > 100 µM | > 100 | > 100 µM | > 100 µM | > 100 µM | > 100 µM | – | – | – | – | – | – | – | – | –
28 | CC(C)(C)[Si](C)(C)OCC1OC(n2ccc(=O)[nH]c2=O)C(O[Si](C)(C)C(C)(C)C)/C1=N/O (stereo not drawn) | 16.1 | 27.7 µM | 12.1 | 18.6 µM | 6.07 µM | 17.8 | 37.9 µM | 5.69 µM | 46.1 µM | 23.3 µM | – | – | – | – | – | – | – | – | –
29 | Brc1ccc(-c2ccc(-c3ccc(Br)s3)s2)s1 | > 100 | > 100 µM | > 100 | > 100 µM | > 100 µM | > 100 | – | > 100 µM | > 100 µM | > 100 µM | – | – | – | – | – | – | – | – | –
30 | C#CCNC(Cc1ccccc1)C(=O)O (stereo not drawn) | > 100 | – | > 100 | > 100 µM | > 100 µM | > 100 | > 100 µM | > 100 µM | > 100 µM | > 100 µM | > 100 | – | – | – | – | – | – | – | –
31 | N#Cc1nn(-c2ccc(Cl)cc2)c(N)c2c(=N)n3nc(-c4ccccc4)cc3nc12 | > 100 | – | > 100 | – | – | – | > 100 µM | – | > 68.4 µM | 76.8 µM | > 100 | – | – | – | – | – | – | – | 36.4
32 | N#CC(C(=O)c1ccccc1F)c1nc2cc(C(F)(F)F)ccc2s1 (stereo not drawn) | 81.6 | – | 94.6 | 89.6 µM | 52.3 µM | > 100 | > 100 µM | 49.5 µM | > 100 µM | > 100 µM | 40.5 | – | – | – | – | – | – | – | –
